From patent publication US8569344B2, “N-piperidinyl acetamide derivatives as calcium channel blockers” (Zalicus Pharmaceuticals Ltd., priority 2008, dated 2013)

The compounds below were run against T1, human α1H T-type channels (Homo sapiens, UniProt O95180) (assay: T-type calcium channel block, whole cell patch clamp in HEK cells (α1H)). Settings: HEK cells, patch clamp, mainly non-inactivated protocol; values above 10 μM shown as 10 μM; read-out: T-type Calcium Channel Block α1H IC50.
T1 construct: expressed in transfected cells; host or cells: HEK 293
T1 sequence (O95180 whole entry): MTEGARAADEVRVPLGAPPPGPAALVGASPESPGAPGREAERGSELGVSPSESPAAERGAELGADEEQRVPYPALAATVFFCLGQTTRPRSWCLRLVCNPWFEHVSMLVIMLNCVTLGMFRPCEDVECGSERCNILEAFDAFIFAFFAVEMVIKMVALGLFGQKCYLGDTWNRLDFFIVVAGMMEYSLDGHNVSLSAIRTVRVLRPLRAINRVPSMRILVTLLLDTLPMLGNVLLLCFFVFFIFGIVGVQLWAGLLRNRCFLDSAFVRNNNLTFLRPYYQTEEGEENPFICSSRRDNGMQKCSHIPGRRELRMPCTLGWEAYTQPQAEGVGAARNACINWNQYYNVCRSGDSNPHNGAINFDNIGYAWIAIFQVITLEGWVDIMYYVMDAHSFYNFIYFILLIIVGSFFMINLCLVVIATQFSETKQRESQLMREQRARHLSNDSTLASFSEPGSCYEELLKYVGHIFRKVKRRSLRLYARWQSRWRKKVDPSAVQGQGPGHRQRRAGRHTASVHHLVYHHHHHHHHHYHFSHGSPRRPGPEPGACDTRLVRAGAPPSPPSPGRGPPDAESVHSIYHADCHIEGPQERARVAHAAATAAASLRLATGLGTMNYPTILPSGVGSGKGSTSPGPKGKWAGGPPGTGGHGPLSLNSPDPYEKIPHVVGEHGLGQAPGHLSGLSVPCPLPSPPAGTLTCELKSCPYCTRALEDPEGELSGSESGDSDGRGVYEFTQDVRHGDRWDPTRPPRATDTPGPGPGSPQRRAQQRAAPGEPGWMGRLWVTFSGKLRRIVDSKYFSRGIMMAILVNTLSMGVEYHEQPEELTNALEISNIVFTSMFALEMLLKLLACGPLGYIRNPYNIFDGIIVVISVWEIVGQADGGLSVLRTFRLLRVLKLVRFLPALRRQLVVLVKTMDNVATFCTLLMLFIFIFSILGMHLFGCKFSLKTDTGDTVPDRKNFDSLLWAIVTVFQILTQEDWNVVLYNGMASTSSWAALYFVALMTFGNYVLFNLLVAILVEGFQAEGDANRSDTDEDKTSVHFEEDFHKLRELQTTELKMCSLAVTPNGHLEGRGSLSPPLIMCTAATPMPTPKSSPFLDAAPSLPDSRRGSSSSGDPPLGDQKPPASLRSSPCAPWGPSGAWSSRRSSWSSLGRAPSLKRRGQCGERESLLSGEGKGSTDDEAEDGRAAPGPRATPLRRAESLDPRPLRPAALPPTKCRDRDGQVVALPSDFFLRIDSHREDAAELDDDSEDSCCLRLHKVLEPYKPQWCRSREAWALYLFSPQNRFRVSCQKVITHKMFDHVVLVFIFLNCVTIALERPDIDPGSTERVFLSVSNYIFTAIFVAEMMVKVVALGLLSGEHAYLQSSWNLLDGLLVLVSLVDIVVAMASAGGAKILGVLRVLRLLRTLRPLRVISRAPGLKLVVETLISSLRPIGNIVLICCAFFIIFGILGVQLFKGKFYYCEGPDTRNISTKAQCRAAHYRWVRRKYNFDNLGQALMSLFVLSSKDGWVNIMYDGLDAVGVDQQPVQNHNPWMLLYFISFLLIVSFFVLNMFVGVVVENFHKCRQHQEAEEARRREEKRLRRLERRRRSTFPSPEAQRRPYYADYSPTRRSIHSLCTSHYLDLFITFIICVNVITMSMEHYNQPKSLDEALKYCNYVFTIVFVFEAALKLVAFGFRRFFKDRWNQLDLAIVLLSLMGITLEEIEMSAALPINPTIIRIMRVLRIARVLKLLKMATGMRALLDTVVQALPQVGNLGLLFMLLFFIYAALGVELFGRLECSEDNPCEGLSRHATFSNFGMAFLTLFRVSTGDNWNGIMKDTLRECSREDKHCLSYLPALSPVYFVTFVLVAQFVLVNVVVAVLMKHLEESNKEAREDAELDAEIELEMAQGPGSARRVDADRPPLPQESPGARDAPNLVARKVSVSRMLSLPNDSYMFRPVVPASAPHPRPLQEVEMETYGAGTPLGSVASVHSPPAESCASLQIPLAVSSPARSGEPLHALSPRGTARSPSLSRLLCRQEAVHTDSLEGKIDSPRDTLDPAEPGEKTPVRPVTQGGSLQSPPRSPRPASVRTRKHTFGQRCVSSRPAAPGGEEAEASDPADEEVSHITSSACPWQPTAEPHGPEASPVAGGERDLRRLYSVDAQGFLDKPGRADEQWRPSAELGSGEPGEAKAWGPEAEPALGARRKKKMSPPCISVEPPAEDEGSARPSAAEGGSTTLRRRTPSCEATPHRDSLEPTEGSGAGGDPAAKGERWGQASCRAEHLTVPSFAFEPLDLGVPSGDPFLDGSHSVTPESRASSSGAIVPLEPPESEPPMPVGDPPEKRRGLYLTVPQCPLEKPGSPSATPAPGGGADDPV
Type: cell-based
Procedure: (§1) T-type calcium channel blocking activity was assayed in human embryonic kidney cells, HEK 293, stably transfected with the T-type calcium channel subunits. Briefly, cells were cultured in Dulbecco's modified eagle medium (DMEM) supplemented with 10% fetal bovine serum, 200 U/ml penicillin and 0.2 mg/ml streptomycin at 37° C. with 5% CO2. At 85% confluency cells were split with 0.25% trypsin/1 mM EDTA and plated at 10% confluency on glass coverslips. […] Fresh DMEM was supplied and the cells transferred to 28° C./5% CO2. Cells were incubated for 1 to 2 days prior to whole cell recording.
(§2) Standard patch-clamp techniques were employed to identify blockers of T-type currents. Briefly, previously described HEK cell lines stably expressing human α1G, α1H and α1I T-type channels were used for all the recordings (passage #: 4-20, 37° C., 5% CO2). Whole cell patch clamp experiments were performed using an Axopatch 200B amplifier (Axon Instruments, Burlingame, Calif.) linked to a personal computer equipped with pCLAMP software. Data were analyzed using Clampfit (Axon Instruments) and SigmaPlot 4.0 (Jandel Scientific). To obtain T-type currents, plastic dishes containing semi-confluent cells were positioned on the stage of a ZEISS AXIOVERT S100 microscope after replacing the culture medium with external solution (see below). Whole-cell patches were obtained using pipettes (borosilicate glass with filament, O.D.: 1.5 mm, I.D.: 0.86 mm, 10 cm length), fabricated on a SUTTER P-97 puller with resistance values of ˜5 MΩ (see below for internal solution).
(§3) In the non-inactivating protocol, the holding potential is set at −110 mV and with a pre-pulse at −100 mV for 1 second prior to the test pulse at −40 mV for 50 ms.
(§4) Test compounds were dissolved in external solution, 0.1-0.01% DMSO. After ˜10 min rest, they were applied by gravity close to the cell using a WPI microfil tubing. The “non-inactivated” pre-pulse was used to examine the resting block of a compound. The “inactivated” protocol was employed to study voltage-dependent block. […] Values are shown in μM and values above 10 μM are simply represented as 10 μM.
An IC50 of 1320 nM was found for `CC(C)(CN1CCC(CNC(=O)c2cc(F)cc(C(F)(F)F)c2)CC1)NS(=O)(=O)C(F)(F)F` [Compound 6, 3-fluoro-N-((1-(2-methyl-2-(trifluoromethylsulfonamido)propyl)piperidin-4-yl)methyl)-5-(trifluoromethyl)benzamide] in this work. An IC50 of 4330 nM was found for `CCS(=O)(=O)NC(C)(C)CN1CCC(CNC(=O)c2cc(F)cc(C(F)(F)F)c2)CC1` [Compound 7, N-((1-(2-(ethylsulfonamido)-2-methylpropyl)piperidin-4-yl)methyl)-3-fluoro-5-(trifluoromethyl)benzamide] in this work.

The compounds below were run against T2, human α1G T-type channels (Homo sapiens, UniProt O43497) (assay: T-type calcium channel block, whole cell patch clamp in HEK cells (α1G)). Settings: HEK cells, patch clamp, mainly non-inactivated protocol; values above 10 μM shown as 10 μM, below 0.30 μM shown as 0.30 μM; read-out: T-type Calcium Channel Block α1G IC50.
T2 construct: expressed in transfected cells; host or cells: HEK 293
T2 sequence (O43497 whole entry): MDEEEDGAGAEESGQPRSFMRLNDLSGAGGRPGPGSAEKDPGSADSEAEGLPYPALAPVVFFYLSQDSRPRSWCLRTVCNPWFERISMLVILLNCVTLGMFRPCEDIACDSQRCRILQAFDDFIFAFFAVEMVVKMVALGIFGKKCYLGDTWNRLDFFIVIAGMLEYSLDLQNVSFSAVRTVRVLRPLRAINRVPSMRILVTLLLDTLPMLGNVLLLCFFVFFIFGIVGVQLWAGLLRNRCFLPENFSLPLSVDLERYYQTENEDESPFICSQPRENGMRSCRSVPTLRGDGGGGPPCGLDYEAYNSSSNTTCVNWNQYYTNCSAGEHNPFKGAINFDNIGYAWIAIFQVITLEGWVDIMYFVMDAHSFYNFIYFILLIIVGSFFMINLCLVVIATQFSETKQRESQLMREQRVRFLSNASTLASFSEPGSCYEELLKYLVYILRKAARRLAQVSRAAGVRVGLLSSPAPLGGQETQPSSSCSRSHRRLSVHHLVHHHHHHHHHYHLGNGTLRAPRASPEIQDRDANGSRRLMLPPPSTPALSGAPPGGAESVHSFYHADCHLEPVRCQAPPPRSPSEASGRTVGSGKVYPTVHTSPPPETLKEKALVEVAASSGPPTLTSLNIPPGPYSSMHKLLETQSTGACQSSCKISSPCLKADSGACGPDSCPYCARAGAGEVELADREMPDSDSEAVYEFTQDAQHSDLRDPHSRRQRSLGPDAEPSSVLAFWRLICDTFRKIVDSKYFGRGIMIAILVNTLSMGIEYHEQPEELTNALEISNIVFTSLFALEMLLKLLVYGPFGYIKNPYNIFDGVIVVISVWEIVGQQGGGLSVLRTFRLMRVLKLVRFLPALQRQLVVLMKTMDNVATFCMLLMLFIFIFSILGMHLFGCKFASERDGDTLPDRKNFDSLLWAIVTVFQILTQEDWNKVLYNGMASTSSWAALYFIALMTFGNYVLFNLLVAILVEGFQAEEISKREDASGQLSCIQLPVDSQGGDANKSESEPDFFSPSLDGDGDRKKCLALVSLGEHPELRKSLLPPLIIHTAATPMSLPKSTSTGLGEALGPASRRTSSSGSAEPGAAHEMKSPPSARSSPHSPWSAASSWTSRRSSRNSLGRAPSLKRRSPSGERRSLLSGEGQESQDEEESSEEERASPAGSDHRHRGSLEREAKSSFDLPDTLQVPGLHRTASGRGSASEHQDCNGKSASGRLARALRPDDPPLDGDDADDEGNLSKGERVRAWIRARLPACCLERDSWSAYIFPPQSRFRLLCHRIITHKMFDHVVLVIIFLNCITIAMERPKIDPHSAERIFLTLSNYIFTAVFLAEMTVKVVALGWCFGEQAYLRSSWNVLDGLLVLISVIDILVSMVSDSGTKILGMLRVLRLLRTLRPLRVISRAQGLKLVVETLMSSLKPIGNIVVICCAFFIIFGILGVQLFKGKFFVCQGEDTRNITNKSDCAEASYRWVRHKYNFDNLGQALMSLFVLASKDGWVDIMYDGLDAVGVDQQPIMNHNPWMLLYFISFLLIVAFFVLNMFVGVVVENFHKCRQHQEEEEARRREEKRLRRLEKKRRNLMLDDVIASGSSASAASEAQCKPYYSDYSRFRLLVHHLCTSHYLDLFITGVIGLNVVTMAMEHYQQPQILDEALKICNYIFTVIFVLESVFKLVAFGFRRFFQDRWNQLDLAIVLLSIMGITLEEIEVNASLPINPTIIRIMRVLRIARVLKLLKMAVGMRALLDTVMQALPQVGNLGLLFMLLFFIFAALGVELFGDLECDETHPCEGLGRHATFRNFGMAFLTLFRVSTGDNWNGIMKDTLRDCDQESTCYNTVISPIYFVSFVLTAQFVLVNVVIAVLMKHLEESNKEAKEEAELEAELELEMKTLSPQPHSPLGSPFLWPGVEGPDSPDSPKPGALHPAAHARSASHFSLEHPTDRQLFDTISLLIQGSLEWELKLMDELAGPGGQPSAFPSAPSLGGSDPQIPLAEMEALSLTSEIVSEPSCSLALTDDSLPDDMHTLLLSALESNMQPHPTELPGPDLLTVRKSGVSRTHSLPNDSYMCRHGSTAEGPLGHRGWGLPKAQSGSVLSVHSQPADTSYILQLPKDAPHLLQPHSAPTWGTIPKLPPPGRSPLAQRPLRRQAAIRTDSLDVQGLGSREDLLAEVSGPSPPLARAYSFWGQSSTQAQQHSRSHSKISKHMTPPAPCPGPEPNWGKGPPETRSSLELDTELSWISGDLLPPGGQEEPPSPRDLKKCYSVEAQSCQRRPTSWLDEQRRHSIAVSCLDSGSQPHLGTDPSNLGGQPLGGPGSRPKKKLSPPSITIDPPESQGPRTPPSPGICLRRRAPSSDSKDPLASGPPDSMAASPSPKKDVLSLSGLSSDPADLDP
Type: cell-based
Procedure: as §1, §2, §3, §4
An IC50 of 1930 nM was found for `O=C(NCC1CCN(C[C@@H]2CCCN2S(=O)(=O)CCC(F)(F)F)CC1)c1cc(F)cc(C(F)(F)F)c1` [Compound 422, (S)-3-fluoro-5-(trifluoromethyl)-N-((1-((1-(3,3,3-trifluoropropyl-sulfonyl)pyrrolidin-2-yl)methyl)piperidin-4-yl)methyl) benzamide] in this work. An IC50 of 2080 nM was found for `CC(C)(C)C(=O)N1CCC[C@H]1CN1CCC(CNC(=O)c2cc(F)cc(C(F)(F)F)c2)CC1` [Compound 423, (S)-3-fluoro-N-((1-((1-pivaloyl-pyrrolidin-2-yl)methyl)piperidin-4-yl)methyl)-5-(trifluoromethyl) benzamide] in this work. An IC50 of 440 nM was found for `CC(C)(C)CC(=O)N1CCC[C@H]1CN1CCC(CNC(=O)c2cc(F)cc(C(F)(F)F)c2)CC1` [Compound 424, (S)-N-((1-((1-(3,3-dimethylbutanol)pyrrolidin-2-yl)methyl)piperidin-4-yl)methyl)-3-fluoro-5-(trifluoromethyl)benzamide] in this work. An IC50 of under 300 nM was found for `O=C(NCC1CCN(C[C@@H]2CCCN2C(=O)C2CCCC2)CC1)c1cc(F)cc(C(F)(F)F)c1` [Compound 425, (S)-N-((1-((1-(cyclopentanecarbonyl)pyrrolidin-2-yl)methyl)piperidin-4-yl)methyl)-3-fluoro-5-(trifluoromethyl)benzamide] in this work. An IC50 of under 300 nM was found for `O=C(NCC1CCN(C[C@@H]2CCCN2C(=O)CCC(F)(F)F)CC1)c1cc(F)cc(C(F)(F)F)c1` [Compound 426, (S)-3-fluoro-N-((1-((1-(4,4,4-trifluorobutanoyl)pyrrolidin-2-yl)methyl)piperidin-4-yl)methyl)-5-(trifluoromethyl)benzamide] in this work. An IC50 of under 300 nM was found for `CC(C)(C)NC(=O)CN1CCC(CNC(=O)C2(c3ccc(Cl)cc3)CCCC2)CC1` [Compound 428, N-((1-(2-(tert-buylamino)-2-oxoethyl)piperidin-4-yl)methyl)-1-(4-chlorophenyl)cyclopentanecarboxamide] in this work. An IC50 of under 300 nM was found for `CC(C)(C)NC(=O)CN1CCC(CNC(=O)c2cc(Br)cc(OC(F)(F)F)c2)CC1` [Compound 429, 3-bromo-N-((1-(2-(tert-butylamino)-2-oxoethyl)piperidin-4-yl)methyl)-5-(trifluoromethoxy)benzamide] in this work. An IC50 of under 300 nM was found for `CC(C)(CO)NC(=O)CN1CCC(CNC(=O)c2cc(C(F)(F)F)cc(C(F)(F)F)c2)CC1` [Compound 430, N-((1-(2-(1-hydroxy-2-methyl-propan-2-ylamino)-2-oxoethyl)piperidin-4-yl)methyl)-3,5-bis(trifluoromethyl)benzamide] in this work. An IC50 of under 300 nM was found for `CC1(NC(=O)CN2CCC(CNC(=O)c3cc(C(F)(F)F)cc(C(F)(F)F)c3)CC2)CCCCC1` [Compound 431, N-((1-(2-(1-methylcyclohexylamino)-2-oxoethyl)piperidin-4-yl)methyl)-3,5-bis(trifluoromethyl)benzamide] in this work. An IC50 of under 300 nM was found for `CC(C)(C)NC(=O)CN1CCC(CNC(=O)C2(c3ccccc3)CCCC2)CC1` [Compound 432, N-((1-(2-(tert-butylamino)-2-oxoethyl)piperidin-4-yl)methyl)-1-phenylcyclopentanecarboxamide] in this work. An IC50 of over 10000 nM was found for `Cc1cccc(C)c1NC(=O)CC1CCN(CCNS(=O)(=O)C(C)C)CC1` [Compound 433, N-(2,6-dimethylphenyl)-2-(1-(2-(1-methylethylsulfonamido)ethyl)piperidin-4-yl)acetamide] in this work.
